Values quoted from earlier work, collected in patent US20070105927A1, “Amorphous rizatriptan benzoate” (Glenmark Pharmaceuticals Limited, priority 2005, published 2007).

What was measured:
[1] = target: human cloned 5-HT1B receptors (Homo sapiens, UniProt P28222); conditions: human cloned receptor
5-HTIE receptor subtype = 5-HTIE receptor subtype (Homo sapiens, UniProt P28566)
5-HT7 receptor = 5-HT7 receptor (Homo sapiens, UniProt P34969)
5-HTIF receptor subtype = target: T1, 5-HTIF receptor subtype (Homo sapiens, UniProt P30939)
T1 sequence (P30939 1-366): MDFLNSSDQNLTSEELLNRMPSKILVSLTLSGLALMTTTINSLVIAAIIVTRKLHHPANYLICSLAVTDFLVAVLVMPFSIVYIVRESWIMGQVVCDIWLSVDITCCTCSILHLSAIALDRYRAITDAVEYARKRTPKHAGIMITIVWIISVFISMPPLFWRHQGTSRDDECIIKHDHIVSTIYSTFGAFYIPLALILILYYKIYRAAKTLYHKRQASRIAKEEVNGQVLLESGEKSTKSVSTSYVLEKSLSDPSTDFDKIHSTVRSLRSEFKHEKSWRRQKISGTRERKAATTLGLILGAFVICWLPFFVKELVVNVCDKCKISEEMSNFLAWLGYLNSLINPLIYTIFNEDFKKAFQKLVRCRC

[2] = system: alpha-adrenergic receptors
[3] = system: beta-adrenergic receptors
5-HT1A receptor subtype = target: T2, 5-HT1A receptor subtype (Homo sapiens, UniProt P08908)
T2 sequence (P08908 1-422): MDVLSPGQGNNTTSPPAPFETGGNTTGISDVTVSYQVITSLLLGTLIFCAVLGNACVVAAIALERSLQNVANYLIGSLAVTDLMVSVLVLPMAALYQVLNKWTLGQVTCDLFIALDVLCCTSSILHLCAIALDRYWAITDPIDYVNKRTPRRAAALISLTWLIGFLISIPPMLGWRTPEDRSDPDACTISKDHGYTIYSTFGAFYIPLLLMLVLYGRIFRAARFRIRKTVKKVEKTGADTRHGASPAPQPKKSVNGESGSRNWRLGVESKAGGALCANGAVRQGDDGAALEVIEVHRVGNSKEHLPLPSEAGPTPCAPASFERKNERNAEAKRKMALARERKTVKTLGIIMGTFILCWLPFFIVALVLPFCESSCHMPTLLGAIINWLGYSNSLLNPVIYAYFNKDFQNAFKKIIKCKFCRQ

[4] = target: human cloned 5-HT1D receptors (Homo sapiens, UniProt P28221); conditions: human cloned receptor
Sequence of human cloned 5-HT1D receptors (P28221 whole entry): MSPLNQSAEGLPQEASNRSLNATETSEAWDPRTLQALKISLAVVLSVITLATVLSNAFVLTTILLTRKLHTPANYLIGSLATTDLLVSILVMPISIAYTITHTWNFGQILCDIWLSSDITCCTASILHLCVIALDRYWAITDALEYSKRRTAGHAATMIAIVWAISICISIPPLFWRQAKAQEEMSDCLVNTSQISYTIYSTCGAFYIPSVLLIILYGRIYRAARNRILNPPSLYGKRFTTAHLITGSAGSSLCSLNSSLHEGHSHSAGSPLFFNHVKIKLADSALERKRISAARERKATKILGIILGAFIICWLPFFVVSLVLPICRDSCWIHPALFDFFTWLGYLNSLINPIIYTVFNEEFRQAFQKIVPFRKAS

[5] = in vivo

Sequence of human cloned 5-HT1B receptors (P28222 whole entry): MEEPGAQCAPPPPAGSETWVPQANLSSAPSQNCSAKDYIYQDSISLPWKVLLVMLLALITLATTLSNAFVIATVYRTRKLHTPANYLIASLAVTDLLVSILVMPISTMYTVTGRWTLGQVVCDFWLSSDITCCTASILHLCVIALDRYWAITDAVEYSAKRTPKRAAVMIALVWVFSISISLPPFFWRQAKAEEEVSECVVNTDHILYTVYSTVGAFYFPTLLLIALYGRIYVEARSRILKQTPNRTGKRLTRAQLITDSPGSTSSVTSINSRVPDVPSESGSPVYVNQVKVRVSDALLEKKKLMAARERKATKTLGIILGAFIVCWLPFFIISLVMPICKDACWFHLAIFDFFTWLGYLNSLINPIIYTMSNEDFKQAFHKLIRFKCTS
Sequence of 5-HT7 receptor (P34969 whole entry): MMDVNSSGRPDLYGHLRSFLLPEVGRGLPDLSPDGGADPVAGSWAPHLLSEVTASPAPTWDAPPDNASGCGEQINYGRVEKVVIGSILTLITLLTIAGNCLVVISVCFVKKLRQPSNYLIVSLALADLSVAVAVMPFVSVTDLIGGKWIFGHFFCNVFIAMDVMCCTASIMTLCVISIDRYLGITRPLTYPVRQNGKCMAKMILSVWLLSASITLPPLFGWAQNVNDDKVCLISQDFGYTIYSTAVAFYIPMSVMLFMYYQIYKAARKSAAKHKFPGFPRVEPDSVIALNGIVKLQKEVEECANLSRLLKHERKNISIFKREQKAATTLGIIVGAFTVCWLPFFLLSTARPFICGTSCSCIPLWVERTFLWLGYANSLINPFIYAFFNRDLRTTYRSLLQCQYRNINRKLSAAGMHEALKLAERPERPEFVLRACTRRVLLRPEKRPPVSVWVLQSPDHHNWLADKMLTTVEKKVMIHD
Sequence of 5-HTIE receptor subtype (P28566 whole entry): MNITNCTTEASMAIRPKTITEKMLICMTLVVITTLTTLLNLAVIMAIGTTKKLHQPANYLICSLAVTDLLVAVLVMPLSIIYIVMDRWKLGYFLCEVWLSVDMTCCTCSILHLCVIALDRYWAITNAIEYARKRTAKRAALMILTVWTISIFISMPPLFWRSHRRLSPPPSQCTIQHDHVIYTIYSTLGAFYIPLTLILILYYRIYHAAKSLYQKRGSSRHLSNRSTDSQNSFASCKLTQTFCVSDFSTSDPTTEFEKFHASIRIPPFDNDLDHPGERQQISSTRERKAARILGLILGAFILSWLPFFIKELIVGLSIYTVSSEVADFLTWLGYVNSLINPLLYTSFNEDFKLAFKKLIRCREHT

Compound	activity at benzodiazepine receptors (benzodiazepine receptors)	activity at 5-HT3 receptors (5-HT3 receptors)	affinity for 5-HT1B receptors [1]	activity at histaminergic receptors (histaminergic receptors)	affinity for 5-HTIE receptor subtype (5-HTIE receptor subtype)	activity at dopaminergic receptors (dopaminergic receptors)	affinity for 5-HT7 receptor (5-HT7 receptor)	affinity for 5-HTIF receptor subtype (5-HTIF receptor subtype)	activity at alpha-adrenergic receptors [2]	activity at muscarinic receptors (muscarinic receptors)	activity at beta-adrenergic receptors [3]	affinity for 5-HT1A receptor subtype (5-HT1A receptor subtype)	affinity for 5-HT1D receptors [4]	activity at 5-HT2 receptors (5-HT2 receptors)	bioavailability [5]
CN(C)CCc1c[nH]c2ccc(Cn3cncn3)cc12 [Rizatriptan]	no significant activity	no significant activity	high affinity	no significant activity	weak affinity	no significant activity	weak affinity	weak affinity	no significant activity	no significant activity	no significant activity	weak affinity	high affinity	no significant activity	
CO/N=C(\C(=O)N[C@@H]1C(=O)N2C(C(=O)OC(C)OC(C)=O)=C(COC(N)=O)CS[C@H]12)c1ccco1 (stereo partly drawn) [cefuroxime axietil]															much higher bioavailability than the crystalline forms
